According to patent US10450297B2, “Sulfonyl amide derivatives for the treatment of abnormal cell growth” (Pfizer, Inc., priority 2007, dated 2019):

Molecular target: FAK kinase (catalytic construct FAK(410-689)) (Homo sapiens (Human), UniProt Q05397)
Test: FAKcd kinase ELISA (inhibition of poly-glu-tyr phosphorylation by FAK(410-689))
Format: biochemical
Conditions: 50 μM final ATP

FAK kinase (catalytic construct FAK(410-689)), sequence (Q05397 410-689): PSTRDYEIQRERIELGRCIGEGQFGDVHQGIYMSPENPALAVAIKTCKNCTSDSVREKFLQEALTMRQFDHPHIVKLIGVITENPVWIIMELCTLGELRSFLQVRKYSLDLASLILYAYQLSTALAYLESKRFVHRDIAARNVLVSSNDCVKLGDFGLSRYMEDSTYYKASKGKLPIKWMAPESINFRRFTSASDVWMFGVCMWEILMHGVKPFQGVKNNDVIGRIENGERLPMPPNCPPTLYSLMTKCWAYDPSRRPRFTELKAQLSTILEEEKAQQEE

Row | IC50 | Compound
1 | 1.03 nM | Cc1cc(C(N)=O)ccc1Nc1ncc(C(F)(F)F)c(NCc2cccnc2N(C)S(C)(=O)=O)n1 [Compound 342, 3-methyl-4-({4-[({2-[methyl(methylsulfonyl)amino]pyridin-3-yl}methyl)amino]-5-(trifluoromethyl)pyrimidin-2-yl}amino)benzamide]
2 | 0.993 nM | Cc1cc(C(N)=O)ccc1Nc1ncc(C(F)(F)F)c(NCc2ncccc2N(C)S(C)(=O)=O)n1 [Compound 343, 3-methyl-4-({4-[({3-[methyl(methylsulfonyl)amino]pyridin-2-yl}methyl)amino]-5-(trifluoromethyl)pyrimidin-2-yl}amino)benzamide]
3 | 0.9 nM | Cc1cc(C(N)=O)ccc1Nc1ncc(C(F)(F)F)c(NCc2nccnc2N(C)S(C)(=O)=O)n1 [Compound 344, 3-methyl-4-({4-[({3-[methyl(methylsulfonyl)amino]pyrazin-2-yl}methyl)amino]-5-(trifluoromethyl)pyrimidin-2-yl}amino)benzamide]
4 | 0.981 nM | Cc1cc(C(N)=O)ccc1Nc1ncc(C(F)(F)F)c(NCc2nccnc2N(C)S(C)(=O)=O)n1 [Compound 345, 3-methyl-4-({4-[({3-[methyl(methylsulfonyl)amino]pyrazin-2-yl}methyl)amino]-5-(trifluoromethyl)pyrimidin-2-yl}amino)benzamide]
5 | 0.886 nM | Cc1cc(C(N)=O)ccc1Nc1ncc(C(F)(F)F)c(NCc2cccc(N(C)S(C)(=O)=O)c2)n1 [Compound 346, 3-methyl-4-{[4-({3-[methyl(methylsulfonyl)amino]benzyl}amino)-5-(trifluoromethyl)pyrimidin-2-yl]amino}benzamide]
6 | 2.15 nM | CC(C)OCc1ccc(Nc2ncc(C(F)(F)F)c(NCc3cccnc3N(C)S(C)(=O)=O)n2)cc1 [Compound 347, N-[3-({{2-{[4-(isopropoxymethyl)phenyl]amino}-5-(trifluoromethyl)pyrimidin-4-yl]amino}methyl)pyridin-2-yl]-N-methylmethane-sulfonamide]
7 | < 0.595 nM | CN(c1ncccc1CNc1nc(Nc2ccc(CN3CCOCC3)cc2)ncc1C(F)(F)F)S(C)(=O)=O [Compound 349, N-methyl-N-[3-({[2-{[4-(morpholin-4-ylmethyl)phenyl]amino}-5-(trifluoromethyl)pyrimidin-4-yl]amino}methyl)pyridin-2-yl]methanesuifonamide]
8 | 63.7 nM | CN(c1ncccc1CNc1nc(Oc2ccc(C(N)=O)cc2)ncc1C(F)(F)F)S(C)(=O)=O [Compound 350, 4-({4-[({2-[methyl(methylsulfonyl)amino]pyridin-3-yl}methyl)amino]-5-(trifluoromethyl)pyrimidin-2-yl}oxy)benzamide]
9 | < 0.595 nM | C[C@@H](N)c1ccc(Nc2ncc(C(F)(F)F)c(NCc3ncccc3N(C)S(C)(=O)=O)n2)cc1 [Compound 352, N-[2-({[2-({4-[(1R)-1-aminoethyl]phenyl}amino)-5-(trifluoromethyl)pyrimidin-4-yl]amino}methyl)pyridin-3-yl]-N-methylmethane-sulfonamide]
10 | < 0.595 nM | C[C@@H](N)c1ccc(Nc2ncc(C(F)(F)F)c(NCc3cccc(N(C)S(C)(=O)=O)c3)n2)cc1 [Compound 353, N-[3-({[2-({4-[(1R)-1-aminoethyl]phenyl}amino)-5-(trifluoromethyl)pyrimidin-4-yl]amino}methyl)phenyl]-N-methylmethanesulfonamide]
11 | < 0.595 nM | C[C@H](N)c1ccc(Nc2ncc(C(F)(F)F)c(NCc3nccnc3N(C)S(C)(=O)=O)n2)cc1 [Compound 355, N-[3-({[2-({4-((1S)-1-aminoethyl]phenyl}amino)-5-(trifluoromethyl)pyrimidin-4-yl]amino}methyl)pyrazin-2-yl]-N-methylmethane-sulfonamide]
12 | 0.593 nM | C[C@H](N)c1ccc(Nc2ncc(C(F)(F)F)c(NCc3ncccc3N(C)S(C)(=O)=O)n2)cc1 [Compound 356, N-[2-({[2-({4-[(1S)-1-aminoethyl]phenyl}amino)-5-(trifluoromethyl)pyrimidin-4-yl]amino}methyl)pyridin-3-yl]-N-methylmethane-sulfonamide]
13 | 1.47 nM | CN(c1cccc(CNc2nc(Nc3ccc(C(N)=O)c(Cl)c3)ncc2C(F)(F)F)c1)S(C)(=O)=O [Compound 357, 2-chloro-4-{[4-({3-[methyl(methylsulfonyl)amino]benzyl}amino)-5-(trifluoromethyl)pyrimidin-2-yl]amino}benzamide]
14 | < 0.595 nM | CN(c1ncccc1CNc1nc(Nc2ccc(C(N)=O)c(Cl)c2)ncc1C(F)(F)F)S(C)(=O)=O [Compound 358, 2-chloro-4-({4-[({2-[methyl(methylsulfonyl)amino]pyridin-3-yl}methyl)amino]-5-(trifluoromethyl)pyrimidin-2-yl}amino)benzamide]
15 | < 0.595 nM | CN(c1cccnc1CNc1nc(Nc2ccc(C(N)=O)c(Cl)c2)ncc1C(F)(F)F)S(C)(=O)=O [Compound 359, 2-chloro-4-({4-[({3-[methyl(methylsulfonyl)amino]pyridin-2-yl}methyl)amino]-5-(trifluoromethyl)pyrimidin-2-yl}amino)benzamide]
16 | < 0.595 nM | CN(c1nccnc1CNc1nc(Nc2ccc(C(N)=O)c(Cl)c2)ncc1C(F)(F)F)S(C)(=O)=O [Compound 360, 2-chloro-4-({4-[({3-[methyl(methylsulfonyl)amino]pyrazin-2-yl}methyl)amino]-5-(trifluoromethyl)pyrimidin-2-yl}amino)benzamide]
17 | 8.7 nM | CN(c1ncccc1CNc1nc(Nc2cccc(C(=O)NC3CCNCC3)c2)ncc1C(F)(F)F)S(C)(=O)=O [Compound 361, 3-({4-[({2-[methyl(methylsulfonyl)amino]pyridin-3-yl}methyl)amino]-5-(trifluoromethyl)pyrimidin-2-yl}amino)-N-piperidin-4-ylbenzamide]
18 | 0.976 nM | C[C@H](N)c1ccc(Nc2ncc(C(F)(F)F)c(NCc3cccc(N(C)S(C)(=O)=O)c3)n2)cc1 [Compound 365, N-[3-({[2-({4-[(1S)-1-aminoethyl]phenyl}amino)-5-(trifluoromethyl)pyrimidin-4-yl]amino}methyl)phenyl]-N-methylmethanesulfonamide]
19 | < 0.595 nM | CC(=O)Nc1cccc(Nc2ncc(C(F)(F)F)c(NCc3cccnc3N(C)S(C)(=O)=O)n2)c1 [Compound 366, N-[3-({4-[({2-[methyl(methylsulfonyl)amino]pyridin-3-yl}methyl)amino]-5-(trifluoromethyl)pyrimidin-2-yl}amino)phenyl]acetamide]
20 | 1.64 nM | CN1CCN(c2cccc(Nc3ncc(C(F)(F)F)c(NCc4cccnc4N(C)S(C)(=O)=O)n3)c2)C1=O [Compound 367, N-methyl-N-[3-({[2-{[3-(3-methyl-2-oxoimidazolidin-1-yl)phenyl]amino}-5-(trifluoromethyl)pyrimidin-4-yl]amino}methyl)pyridin-2-yl]methanesulfonamide]
21 | < 0.595 nM | CNC(=O)c1ccc(Nc2ncc(C(F)(F)F)c(NCc3nccnc3N(C)S(C)(=O)=O)n2)c(F)c1 [Compound 368, 3-fluoro-N-methyl-4-({4-[({3-[methyl(methylsulfonyl)amino]pyrazin-2-yl}methyl)amino]-5-(trifluoromethyl)pyrimidin-2-yl}amino)benzamide]
22 | 1.49 nM | CNC(=O)c1ccc(Nc2ncc(C(F)(F)F)c(NCc3nccnc3N(C)S(C)(=O)=O)n2)c(F)c1 [Compound 369, 3-fluoro-N-methyl-4-({4-[({3-[methyl(methylsulfonyl)amino]pyrazin-2-yl}methyl)amino]-5-(trifluoromethyl)pyrimidin-2-yl}amino)benzamide]
23 | 0.6 nM | CNC(=O)c1ccc(Nc2ncc(C(F)(F)F)c(NCc3nccnc3N(C)S(C)(=O)=O)n2)cc1F [Compound 370, 2-fluoro-N-methyl-4-({4-(({3-[methyl(methylsulfonyl)amino]pyrazin-2-yl}methyl)amino]-5-(trifluoromethyl)pyrimidin-2-yl}amino)benzamide]
24 | 1.94 nM | CCC(=O)Nc1cccc(Nc2ncc(C(F)(F)F)c(NCc3cccnc3N(C)S(C)(=O)=O)n2)c1 [Compound 371, N-(3-({4-[({2-[methyl(methylsulfonyl)amino]pyridin-3-yl}methyl)amino]-5-(trifluoromethyl)pyrimidin-2-yl}amino)phenyl]propanamide]
25 | 4 nM | CN(c1ncccc1CNc1nc(Nc2ccc(C(N)=O)nc2)ncc1C(F)(F)F)S(C)(=O)=O [Compound 372, 5-({4-[({2-[methyl(methylsulfonyl)amino]pyridin-3-yl}methyl)amino]-5-(trifluoromethyl)pyrimidin-2-yl}amino)pyridine-2-carboxamide]
26 | 7.49 nM | CN(c1nccnc1CNc1nc(Nc2cc(C(N)=O)ccc2F)ncc1C(F)(F)F)S(C)(=O)=O [Compound 373, 4-fluoro-3-({4-[({3-[methyl(methylsulfonyl)amino]pyrazin-2-yl}methyl)amino]-5-(trifluoromethyl)pyrimidin-2-yl}amino)benzamide]
27 | 15.5 nM | CN(c1cccc(CNc2nc(Nc3cc(C(N)=O)ccc3F)ncc2C(F)(F)F)c1)S(C)(=O)=O [Compound 374, 4-fluoro-3-{[4-({3-[methyl(methylsulfonyl)amino]benzyl}amino)-5-(trifluoromethyl)pyrimidin-2-yl]amino}benzamide]
28 | 6.29 nM | CN(c1ncccc1CNc1nc(Nc2cc(C(N)=O)ccc2F)ncc1C(F)(F)F)S(C)(=O)=O [Compound 375, 4-fluoro-3-({4-[({2-[methyl(methylsulfonyl)amino]pyridin-3-yl}methyl)amino]-5-(trifluoromethyl)pyrimidin-2-yl)amino)benzamide]
29 | 8.15 nM | CN(c1cccc(CNc2nc(Nc3ccc(C(N)=O)nc3)ncc2C(F)(F)F)c1)S(C)(=O)=O [Compound 376, 5-{[4-({3-[methyl(methylsulfonyl)amino]benzyl}amino)-5-(trifluoromethyl)pyrimidin-2-yl]amino}pyridine-2-carboxamide]
30 | 15.3 nM | CN(c1cccnc1CNc1nc(Nc2ccc(C(N)=O)nc2)ncc1C(F)(F)F)S(C)(=O)=O [Compound 377, 5-({4-[({3-[methyl(methylsulfonyl)amino]pyridin-2-yl}methyl)amino]-5-(trifluoromethyl)pyrimidin-2-yl}amino)pyridine-2-carboxamide]
